Laboratory results from ChEMBL document CHEMBL4190222, “Sulawesins A-C, Furanosesterterpene Tetronic Acids That Inhibit USP7, from a Psammocinia sp. Marine Sponge” (J Nat Prod, 2017).
Calls of active or inactive are those of the source. The rule behind the calls is not given here.

Key:
[1] = biological target: T1, Ubiquitin carboxyl-terminal hydrolase 7 (Homo sapiens, UniProt Q93009); test: Inhibition of recombinant His6-tagged human USP7 expressed in insect expression system […] using ubiquitin-Rh110 as substrate preincubated for 30 mins followed by substrate addition measured after 180 mins by fluorescence assay
Target sequence in this assay (Q93009 whole entry, looked up): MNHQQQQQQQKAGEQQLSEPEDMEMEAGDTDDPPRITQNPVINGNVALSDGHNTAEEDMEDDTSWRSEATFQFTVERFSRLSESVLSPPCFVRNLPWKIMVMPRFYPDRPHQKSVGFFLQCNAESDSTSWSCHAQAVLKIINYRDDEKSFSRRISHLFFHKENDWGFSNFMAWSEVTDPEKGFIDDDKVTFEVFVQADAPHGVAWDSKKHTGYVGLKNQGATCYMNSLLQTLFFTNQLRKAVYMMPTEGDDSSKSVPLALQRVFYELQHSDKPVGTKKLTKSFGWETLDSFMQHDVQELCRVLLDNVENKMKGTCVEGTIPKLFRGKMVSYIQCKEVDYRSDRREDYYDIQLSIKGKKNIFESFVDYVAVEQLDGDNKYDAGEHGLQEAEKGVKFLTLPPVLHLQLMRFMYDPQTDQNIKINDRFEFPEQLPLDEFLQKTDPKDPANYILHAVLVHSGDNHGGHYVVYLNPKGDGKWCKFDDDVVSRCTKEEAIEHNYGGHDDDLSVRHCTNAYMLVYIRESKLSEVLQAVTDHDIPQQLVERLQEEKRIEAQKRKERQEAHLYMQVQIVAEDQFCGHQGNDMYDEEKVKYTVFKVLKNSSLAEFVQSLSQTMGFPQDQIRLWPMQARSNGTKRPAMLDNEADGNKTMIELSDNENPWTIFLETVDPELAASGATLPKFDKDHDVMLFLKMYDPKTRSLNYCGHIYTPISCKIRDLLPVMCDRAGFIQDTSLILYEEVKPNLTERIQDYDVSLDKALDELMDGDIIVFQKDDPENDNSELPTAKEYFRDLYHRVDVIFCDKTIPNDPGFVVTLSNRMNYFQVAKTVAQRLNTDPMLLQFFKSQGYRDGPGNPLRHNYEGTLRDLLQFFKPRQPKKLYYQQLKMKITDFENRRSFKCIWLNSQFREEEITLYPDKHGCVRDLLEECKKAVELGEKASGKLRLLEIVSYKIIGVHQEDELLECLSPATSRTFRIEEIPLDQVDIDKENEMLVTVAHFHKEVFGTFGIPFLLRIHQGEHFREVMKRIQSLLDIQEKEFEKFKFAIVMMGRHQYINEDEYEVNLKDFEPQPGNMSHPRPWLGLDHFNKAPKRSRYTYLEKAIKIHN

[2] = biological target: T1, Ubiquitin carboxyl-terminal hydrolase 7; test: Inhibition of recombinant His6-tagged human USP7 expressed in insect expression system using ubiquitin-Rh110 as substrate preincubated for 30 mins followed by substrate addition measured after 180 mins by fluorescence assay
Target sequence in this assay (Q93009 whole entry): as the sequence (Q93009 whole entry, looked up) above

Row | SMILES | inhibition [1] | IC50 [2]
1 | CCN1C(=O)C=CC1=O | Active | –
2 | CC1=C(O)/C(=C/C(C)CC/C=C(/C)CCCC2=CC(=O)[C@@H](c3ccoc3)[C@@H]2O)OC1=O (mixture of isomers) | – | 4.6 µM
3 | CC1=C(O)/C(=C/C(C)CCC/C(C)=C/CCC2=CC(=O)[C@@H](c3ccoc3)[C@@H]2O)OC1=O (mixture of isomers) | – | 2.8 µM
4 | CC1=C(O)/C(=C/C(C)CC/C=C(/C)CCCc2coc(Cc3ccoc3)c2)OC1=O (mixture of isomers) | – | 3.5 µM
5 | CC1=C(O)/C(=C/C(C)CCC/C(C)=C/CCc2coc(Cc3ccoc3)c2)OC1=O (racemic) | – | 2.7 µM
